Test results from US12570648B2, “6,7-dihydro-5H-pyrido[2,3-c]pyridazine derivatives and related compounds as Bcl-xL protein inhibitors and pro-apoptotic agents for treating cancer” (LES LABORATOIRES SERVIER, priority 2019, dated 2026).

Key:
[1] = molecular target: GST(1-218)-(FACTOR_XA)-hsBCLXL(2-209) (Homo sapiens (Human), UniProt Q07817); test: Fluorescence polarisation assay; format: binding
Procedure: Fluorescence polarization measures the rotation of a fluorescing species in solution, the larger the molecule the more polarized the fluorescence emission.
(GST UniProtKB® primary accession number P08515 and BCLXL UniProtKB® primary accession number Q07817-1), • resulting in an increase in anisotropy. If a compound is added which competitively binds to the same site as the probe, thereby releasing it, anisotropy decreases due to the increased amount of free probe.
An 11-point serial dilution of each compound was prepared in DMSO, the final buffer conditions were 10 mM 4-(2-hydroxyethyl)-1-piperazineethanesulfonic acid [HEPES], 150 mM NaCl, 0.05% Tween 20, pH 7.4 and 5% DMSO. The final protein concentration in the assay was 20 nM with the fluorescent probe present at 10 nM. […] 1; 37 (WebServer issue): W441-W445.

[2] = molecular target: His-His-(EK)-hsBCLXL(2-197)[N197C] (Homo sapiens (Human), UniProt Q07817, N197C); test: Fluorescence quenching assay; format: binding; details: 1 nM Cy5-labelled protein, 400 nM PUMA peptide, 2 hours at 23° C.; KI determined from IC50
How it was run: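 Ki values converted from IC50s, measured as fluorescence increase (Ex 620/Em 680 nm) after 2 h at 23° C. Compounds were titrated over 11 points against 1 nM Cy5-BCL-xL and 400 nM quencher-tagged PUMA peptide in pH 7.4 HEPES (10 mM), 150 mM NaCl, 0.05% Tween 20, 5% DMSO.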

[3] = test system: H146 cells; test: H146 cell viability using MTT assay; format: cell-based; details: Homo sapiens, NCI-H146, 48 h exposure
Procedure: MTT colorimetric assay is based on the mitochondrial reduction of tetrazolium salt by living cells. The viable cell number is proportional to the production of formazan salts, which can be read spectrophotometrically at 540 nm.
MOLT-4 and H146 cells were purchased from ATCC and cultivated in RPMI 1640 supplemented with 10% heat inactivated fetal bovine serum, penicillin (100 IU/ml), streptomycin (100 μg/ml) and L-glutamine (2 mM). Cells were cultured at 37° C. in a humidified atmosphere containing 5% CO2. Cells were seeded in 96 microwell plates (150p per well) and exposed to the compounds for 48 h (3.16 fold serially diluted; 9 concentrations each, triplicates). At the end of incubation time, 15 μL of MTT solution (5 mg/ml) were added per well and the cells were incubated for another 4 h. Then, 100 μL of 10% Sodium Dodecyl Sulfate (SDS)/HCl 10 mM were added per well and the plate was incubated overnight, before measurement of optical density at 540 nm. IC50s were calculated using standard four-parametric curve fitting.

[4] = test system: MOLT-4 cells; test: MOLT-4 cell viability using MTT assay; format: cell-based; details: Homo sapiens, MOLT-4, 48 h, 48 h exposure
Procedure: MTT colorimetric assay is based on the mitochondrial reduction of tetrazolium salt by living cells.
Cells were cultured at 37° C. in a humidified atmosphere containing 5% CO2. […] At the end of incubation time, 15 μL of MTT solution (5 mg/ml) were added per well and the cells were incubated for another 4 h. […] IC50s were calculated using standard four-parametric curve fitting.

Chain of GST(1-218)-(FACTOR_XA)-hsBCLXL(2-209) (Q07817 other isoform, or with tags, fused parts or gaps): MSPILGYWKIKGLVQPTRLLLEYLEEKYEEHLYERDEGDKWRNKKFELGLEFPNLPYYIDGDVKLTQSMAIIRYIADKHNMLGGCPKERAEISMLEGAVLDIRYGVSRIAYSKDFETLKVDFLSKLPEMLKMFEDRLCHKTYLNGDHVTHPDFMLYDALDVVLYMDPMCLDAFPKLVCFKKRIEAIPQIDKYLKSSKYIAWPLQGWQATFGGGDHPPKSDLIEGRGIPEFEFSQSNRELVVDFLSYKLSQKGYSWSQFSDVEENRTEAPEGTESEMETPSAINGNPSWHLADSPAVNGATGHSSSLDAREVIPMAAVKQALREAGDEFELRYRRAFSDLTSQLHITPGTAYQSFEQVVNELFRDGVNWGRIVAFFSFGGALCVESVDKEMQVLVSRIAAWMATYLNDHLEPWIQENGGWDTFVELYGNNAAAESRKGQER
Chain of His-His-(EK)-hsBCLXL(2-197)[N197C] (Q07817 2-197 N197C): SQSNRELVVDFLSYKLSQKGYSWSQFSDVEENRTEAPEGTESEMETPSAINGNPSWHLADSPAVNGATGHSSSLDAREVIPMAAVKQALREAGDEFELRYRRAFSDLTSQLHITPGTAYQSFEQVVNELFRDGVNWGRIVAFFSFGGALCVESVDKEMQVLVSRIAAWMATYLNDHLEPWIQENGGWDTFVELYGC

| Ki [1] [nM] | Ki [2] [nM] | IC50 [3] [nM] | IC50 [4] [nM] | SMILES |
| --- | --- | --- | --- | --- |
| 120 | – | – | – | Cc1c(Nc2nc3ccccc3s2)nnc2c1CCCCN2c1nc(C(=O)O)cs1 [Example 25, 2-{3-[(1,3-Benzothiazol-2-yl)amino]-4-methyl-5H,6H,7H,8H,9H-pyridazino[3,4-b]azepin-9-yl}-1,3-thiazole-4-carboxylic acid] |
| 9.6 | – | – | – | Cc1c(Nc2nc3ccccc3s2)nnc2c1CCCCN2c1ccc(-c2cnn(CC34CC5CC(CC(C5)C3)C4)c2C)c(C(=O)O)n1 [Example 29, 3-{1-[(Adamantan-1-yl)methyl]-5-methyl-1H-pyrazol-4-yl}-6-{3-[(1,3-benzothiazol-2-yl)amino]-4-methyl-5H,6H,7H,8H,9H-pyridazino[3,4-b]azepin-9-yl}pyridine-2-carboxylic acid] |
| – | 0.0034 | 69 | 20.2 | Cc1c(Nc2nc3ccccc3s2)nnc2c1CCCN2c1nc(C(=O)O)c(CCCOc2ccc(CCCCN(C)C)cc2F)s1 [Example 62, 2-{3-[(1,3-Benzothiazol-2-yl)amino]-4-methyl-5H,6H,7H,8H-pyrido[2,3-c]pyridazin-8-yl}-5-(3-{4-[4-(dimethylamino)butyl]-2-fluorophenoxy}propyl)-1,3-thiazole-4-carboxylic acid] |
| – | 0.005 | 3.98 | 26.6 | CNCCOC1Cc2c(nnc(Nc3nc4ccccc4s3)c2C)N(c2nc(C(=O)O)c(CCCOc3ccc(C#CCN(C)C)cc3F)s2)C1 (centres unmarked) [Example 65, 2-{3-[(1,3-Benzothiazol-2-yl)amino]-4-methyl-6-[2-(methylamino)ethoxy]-5H,6H,7H,8H-pyrido[2,3-c]pyridazin-8-yl}-5-(3-{4-[3-(dimethylamino)prop-1-yn-1-yl]-2-fluorophenoxy}propyl)-1,3-thiazole-4-carboxylic acid] |
| – | 0.0029 | 22.1 | 59.4 | CNCC#Cc1ccc(OCCCc2sc(N3CC(O)Cc4c3nnc(Nc3nc5ccccc5s3)c4C)nc2C(=O)O)c(F)c1 (centres unmarked) [Example 38, 2-[3-(1,3-Benzothiazol-2-ylamino)-6-hydroxy-4-methyl-6,7-dihydro-5H-pyrido[2,3-c]pyridazin-8-yl]-5-[3-[2-fluoro-4-[3-(methylamino)prop-1-ynyl]phenoxy]propyl]thiazole-4-carboxylic acid] |
| – | 0.0012 | 595 | 47.2 | Cc1c(Nc2nc3ccccc3s2)nnc2c1CCCN2c1nc(C(=O)O)c(CCCOc2ccc(C#CCNCC[N+](C)(C)CCCS(=O)(=O)[O-])cc2F)s1 [Example 54, 3-[2-[3-[4-[3-[2-[3-(1,3-Benzothiazol-2-ylamino)-4-methyl-6,7-dihydro-5H-pyrido[2,3-c]pyridazin-8-yl]-4-carboxy-thiazol-5-yl]propoxy]-3-fluoro-phenyl]prop-2-ynylamino]ethyl-dimethyl-ammonio]propane-1-sulfonate] |
| – | 0.0052 | 11.8 | 30.5 | CNCCc1ccc(OCCCc2sc(N3CCCc4c3nnc(Nc3nc5ccccc5s3)c4C)nc2C(=O)O)c(F)c1 [Example 64, 2-{3-[(1,3-Benzothiazol-2-yl)amino]-4-methyl-5H,6H,7H,8H-pyrido[2,3-c]pyridazin-8-yl}-5-(3-{2-fluoro-4-[2-(methylamino)ethyl]phenoxy}propyl)-1,3-thiazole-4-carboxylic acid] |
| – | 0.064 | 33.4 | 2.13 | Cc1c(Nc2nc3ccccc3s2)nnc2c1CCCN2c1nc(C(=O)O)c(CCCOc2ccc(C#CCN3CCC(F)(F)CC3)cc2F)s1 [Example 49, 2-{3-[(1,3-Benzothiazol-2-yl)amino]-4-methyl-5H,6H,7H,8H-pyrido[2,3-c]pyridazin-8-yl}-5-(3-{4-[3-(4,4-difluoropiperidin-1-yl)prop-1-yn-1-yl]-2-fluorophenoxy}propyl)-1,3-thiazole-4-carboxylic acid] |
| – | 0.0048 | 6.65 | 0.817 | Cc1c(Nc2nc3ccccc3s2)nnc2c1CCCN2c1nc(C(=O)O)c(CCCOc2ccc(C#CCN3CCC4(CC3)CNC(=O)C4)cc2F)s1 [Example 58, 2-[3-(1,3-Benzothiazol-2-ylamino)-4-methyl-6,7-dihydro-5H-pyrido[2,3-c]pyridazin-8-yl]-5-[3-[2-fluoro-4-[3-(3-oxo-2,8-diazaspiro[4.5]decan-8-yl)prop-1-ynyl]phenoxy]propyl]thiazole-4-carboxylic acid] |
| 3300 | – | – | – | Cc1nc(Nc2nnc3c(c2C)CCN3c2nc(C(=O)O)cs2)sc1C [Example 19, 2-{3-[(4,5-Dimethyl-1,3-thiazol-2-yl)amino]-4-methyl-5H,6H,7H-pyrrolo[2,3-c]pyridazin-7-yl}-1,3-thiazole-4-carboxylic acid] |

The next lines start with the molecule.

| SMILES | Ki [1] [nM] | Ki [2] [nM] | IC50 [3] [nM] | IC50 [4] [nM] |
| --- | --- | --- | --- | --- |
| O=C(O)c1cccc(-n2ccc3cc(Nc4nc5ccccc5s4)ccc32)n1 [Example 5, 6-{5-[(1,3-Benzothiazol-2-yl)amino]-1H-indol-1-yl}pyridine-2-carboxylic acid] | > 10000 | – | – | – |
| O=C(O)c1csc(-n2ccc3cc(Nc4nc5ccccc5s4)ncc32)n1 [Example 7, 2-{5-[(1,3-Benzothiazol-2-yl)amino]-1H-pyrrolo[2,3-c]pyridin-1-yl}-1,3-thiazole-4-carboxylic acid] | 9900 | – | – | – |
| O=C(O)c1csc(N2CCCc3cc(Nc4nc5ccccc5s4)nnc32)n1 [Example 12, 2-{3-[(1,3-Benzothiazol-2-yl)amino]-5H,6H,7H,8H-pyrido[2,3-c]pyridazin-8-yl}-1,3-thiazole-4-carboxylic acid] | 30 | – | – | – |
| O=C(O)c1csc(N2CCCc3cc(Nc4nc5ccccc5s4)ccc32)n1 [Example 1, 2-{6-[(1,3-Benzothiazol-2-yl)amino]-1,2,3,4-tetrahydroquinolin-1-yl}-1,3-thiazole-4-carboxylic acid] | 37000 | – | – | – |
| O=C(O)c1csc(N2CCOc3cc(Nc4nc5ccccc5s4)ccc32)n1 [Example 4, 2-{7-[(1,3-Benzothiazol-2-yl)amino]-3,4-dihydro-2H-1,4-benzoxazin-4-yl}-1,3-thiazole-4-carboxylic acid] | > 10000 | – | – | – |
| Cc1c(Nc2nccs2)nnc2c1CCN2c1nc(C(=O)O)cs1 [Example 18, 2-{4-Methyl-3-[(1,3-thiazol-2-yl)amino]-5H,6H,7H-pyrrolo[2,3-c]pyridazin-7-yl}-1,3-thiazole-4-carboxylic acid] | 5000 | – | – | – |
| O=C(O)c1csc(-n2ccc3cc(Nc4nc5ccccc5s4)nnc32)n1 [Example 8, 2-{3-[(1,3-Benzothiazol-2-yl)amino]-7H-pyrrolo[2,3-c]pyridazin-7-yl}-1,3-thiazole-4-carboxylic acid] | 1100 | – | – | – |
| O=C(O)c1csc(N2CCc3cc(Nc4nc5ccccc5s4)ccc32)n1 [Example 3, 2-{5-[(1,3-Benzothiazol-2-yl)amino]-2,3-dihydro-1H-indol-1-yl}-1,3-thiazole-4-carboxylic acid] | 36000 | – | – | – |
| CC1Cc2cc(Nc3nc4ccccc4s3)nnc2N1c1nc(C(=O)O)cs1 (centres unmarked) [Example 16, 2-{3-[(1,3-Benzothiazol-2-yl)amino]-6-methyl-5H,6H,7H-pyrrolo[2,3-c]pyridazin-7-yl}-1,3-thiazole-4-carboxylic acid] | 120 | – | – | – |
| O=C(O)c1csc(-n2ccc3cc(Nc4nc5ccccc5s4)cnc32)n1 [Example 6, 2-{5-[(1,3-Benzothiazol-2-yl)amino]-1H-pyrrolo[2,3-b]pyridin-1-yl}-1,3-thiazole-4-carboxylic acid] | > 10000 | – | – | – |
| O=C(O)c1csc(-n2ccc3cc(Nc4nc5ccccc5s4)ccc32)n1 [Example 2, 2-{5-[(1,3-Benzothiazol-2-yl)amino]-1H-indol-1-yl}-1,3-thiazole-4-carboxylic acid] | > 10000 | – | – | – |
